Test results reported in patent US20230091047A1 (priority 2019, published 2023).
Where two headings read alike, the source gives them in different places.

What was measured:
in vitro = type: cell-based; conditions: human, HepG2 or HepG2.117 cells, mean value
Procedure, shortened: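 Luminescent ATP quantitation served as the viability endpoint following a 3- or 4-day incubation with test compounds.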

[1] = system: HBV (HepG2.117 cell line, inducibly HBV producing); assay: Anti-HBV activity: intracellular HBV DNA by real-time PCR in HepG2.117 cells after 3 days of treatment; type: cell-based, hepatitis B virus
Procedure, shortened: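 Antiviral effect is expressed through intracellular HBV DNA levels, determined by real-time PCR with a virus-specific probe. These levels were measured after 3 days of treatment with compound dilutions, in HepG2.117 cells induced to replicate HBV.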

[2] = 3-days incubation (unmarked values), ATPlite
[3] = Hepatitis B virus, HepG2.117, 72 h, HepG2.117 cells, 3 days of treatment, intracellular HBV DNA by real-time PCR; mean value; read-out: EC50 (μM, mean value)
[4] = ATPlite, 3-days incubation (not marked with *)
[5] = Hepatitis B virus, HepG2.117, 72 h, HepG2.117 cells, intracellular HBV DNA by real-time PCR, 3 days of treatment, mean value; read-out: EC50 (μM, mean value)

Structure (SMILES)	CC50 at 3 days (in vitro; [2]) [µM]	EC50 [1, 3] [µM]	CC50 at 3 days (in vitro; [4]) [µM]	EC50 [1, 5] [µM]	further results
Cc1noc(-c2ccc(-n3c(NC(C)C)nc4c(c3=O)C[C@@H](C)N(C(=O)c3ccc(Cl)c(Cl)c3)C4)cc2)n1 [Compound C371]	> 50	0.13	–	–	–
CNC(=O)c1ccc(-n2c(N[C@H](C)C3CC3)nc3c(c2=O)C[C@@H](C)N(C(=O)c2ccc(Cl)c(Cl)c2)C3)cc1 [Compound C295, 4-[(6R)-2-{[(1R)-1-cyclopropylethyl]amino}-7-(3,4-dichlorobenzoyl)-6-methyl-4-oxo-5,6,7,8-tetrahydropyrido[3,4-d]pyrimidin-3(4H)-yl]-N-methylbenzamide]	37.2	0.22	–	–	–
CNC(=O)c1ncc(-n2c(NC(C)C)nc3c(c2=O)C[C@@H](C)N(C(=O)c2ccc(Cl)c(Cl)c2)C3)cn1 [Compound C328, 5-[(6R)-7-(3,4-dichlorobenzoyl)-6-methyl-4-oxo-2-[(propan-2-yl)amino]-5,6,7,8-tetrahydropyrido[3,4-d]pyrimidin-3(4H)-yl]-N-methylpyrimidine-2-carboxamide]	> 50	0.51	–	–	–
CNC(=O)c1ccc(-n2c(N[C@@H](C)c3cccc(F)c3)nc3c(c2=O)C[C@@H](C)N(C(=O)c2ccc(Cl)c(Cl)c2)C3)cc1 [Compound C306, 4-[(6R)-7-(3,4-dichlorobenzoyl)-2-{[(1S)-1-(3-fluorophenyl)ethyl]amino}-6-methyl-4-oxo-5,6,7,8-tetrahydropyrido[3,4-d]pyrimidin-3(4H)-yl]-N-methylbenzamide]	19.3	0.08	–	–	–
CNC(=O)c1ccc(-n2c(N[C@H](C)c3ccc(OC)c(OC)c3)nc3c(c2=O)C[C@@H](C)N(C(=O)c2ccc(Cl)c(Cl)c2)C3)cc1 (single isomer, unassigned) [Compound C415a]	–	–	32.9	1.06	–
CNC(=O)c1ccc(-n2c(N3CCC34CCC4)nc3c(c2=O)C[C@@H](C)N(C(=O)c2ccc(Cl)c(Cl)c2)C3)cc1 [Compound C373]	28.3	0.71	–	–	–
CNC(=O)c1ccc(-n2c(N[C@@H](C)c3ccc(F)cc3F)nc3c(c2=O)C[C@@H](C)N(C(=O)c2ccc(Cl)c(Cl)c2)C3)cc1 (single isomer, unassigned) [Compound C689b]	–	–	27.3	0.46	–
CC(C)NC(=O)c1cnc(-n2c(NC(C)C)nc3c(c2=O)C[C@@H](C)N(C(=O)c2ccc(Cl)c(C(F)(F)F)c2)C3)cn1 [Compound C694]	–	0.05	–	–	CC50 at 3 days (in vitro; 3-days incubation (unmarked values), ATPlite viability): > 50 µM
CNC(=O)c1ccc(-n2c(NC(C)C)nc3c(c2=O)C[C@@H](C)N(C(=O)c2ccc(Br)cc2Cl)C3)cc1 [Compound C565]	–	–	> 50	0.68	–
CNC(=O)c1ccc(-n2c(NC(C)C)nc3c(c2=O)C[C@@H](C)N(C(=O)c2cc(C)c(F)c(C)c2)C3)cc1 [Compound C501]	–	–	> 50	0.36	–
CNC(=O)c1ccc(-n2c(N3CCCCCC3)nc3c(c2=O)C[C@@H](C)N(C(=O)c2ccc(Cl)c(Cl)c2)C3)cc1 [Compound C467]	–	–	30	0.1	–
COc1ccc(Cn2c(N)nc3c(c2=O)CCN(C(=O)c2ccc(Cl)c(Cl)c2)C3)cc1 [Compound C76, 2-amino-7-(3,4-dichlorobenzoyl)-3-[(4-methoxyphenyl)methyl]-5,6,7,8-tetrahydropyrido[3,4-d]pyrimidin-4(3H)-one]	7.1	9.63	–	–	–
COc1ccccc1-n1c(N(C)C)nc2c(c1=O)CCN(C(=O)c1ccc(Cl)c(Cl)c1)C2 [Compound C46, 7-(3,4-dichlorobenzoyl)-2-(dimethylamino)-3-(2-methoxyphenyl)-5,6,7,8-tetrahydropyrido[3,4-d]pyrimidin-4(3H)-one]	> 50	6.49	–	–	–
CNC(=O)c1ccc(-n2c(NC3(C)CC3)nc3c(c2=O)C[C@@H](C)N(C(=O)c2ccc(Cl)c(Cl)c2)C3)cc1 [Compound C297, 4-[(6R)-7-(3,4-dichlorobenzoyl)-6-methyl-2-[(1-methylcyclopropyl)amino]-4-oxo-5,6,7,8-tetrahydropyrido[3,4-d]pyrimidin-3(4H)-yl]-N-methylbenzamide]	> 50	0.05	–	–	–
CNC(=O)c1ccc(-n2c(N[C@@H](c3ccc(OC)cc3)C(C)C)nc3c(c2=O)C[C@@H](C)N(C(=O)c2ccc(Cl)c(Cl)c2)C3)cc1 (single isomer, unassigned) [Compound C422a]	–	–	10.5	7.77	–
CNC(=O)c1ccc(-n2c(N[C@H](C)c3ccc(C(F)(F)F)c(F)c3)nc3c(c2=O)C[C@@H](C)N(C(=O)c2ccc(Cl)c(Cl)c2)C3)cc1 (single isomer, unassigned) [Compound C659a]	–	–	6.8	0.12	–
Cc1noc(C)c1-c1ccc(-n2c(NC(C)C)nc3c(c2=O)C[C@@H](C)N(C(=O)c2ccc(Cl)c(Cl)c2)C3)cc1 [Compound C211, (6R)-7-(3,4-dichlorobenzoyl)-3-[4-(3,5-dimethyl-1,2-oxazol-4-yl)phenyl]-6-methyl-2-[(propan-2-yl)amino]-5,6,7,8-tetrahydropyrido[3,4-d]pyrimidin-4(3H)-one]	> 50	0.15	–	–	–
CC(C)Nc1nc2c(c(=O)n1-c1ccc(-c3nccs3)cc1)CCN(C(=O)c1ccc(Cl)c(Cl)c1)C2 [Compound C238, 7-(3,4-dichlorobenzoyl)-2-[(propan-2-yl)amino]-3-[4-(1,3-thiazol-2-yl)phenyl]-5,6,7,8-tetrahydropyrido[3,4-d]pyrimidin-4(3H)-one]	> 50	0.56	–	–	–
CNC(=O)c1ccc(-n2c(N[C@@H](C)c3ccc(S(C)(=O)=O)cc3)nc3c(c2=O)C[C@@H](C)N(C(=O)c2ccc(Cl)c(Cl)c2)C3)cc1 (single isomer, unassigned) [Compound C412b]	–	–	> 50	> 10	–
CNC(=O)c1ccc(-n2c(NC(C)C)nc3c(c2=O)C[C@@H](C)N(C(=O)c2ccc(C#N)c(Cl)c2)C3)cc1 [Compound C508]	–	–	> 50	0.88	–
CNC(=O)c1ccc(-n2c(N[C@@H](C)c3nccs3)nc3c(c2=O)C[C@@H](C)N(C(=O)c2ccc(Cl)c(Cl)c2)C3)cc1 (single isomer, unassigned) [Compound C434b]	–	–	> 50	0.84	–
COc1ccc(CNc2nc3c(c(=O)[nH]2)CCN(C(=O)c2ccc(C(F)(F)F)cc2)C3)cc1 [Compound C118, 2-{[(4-methoxyphenyl)methyl]amino}-7-[4-(trifluoromethyl)benzoyl]-5,6,7,8-tetrahydropyrido[3,4-d]pyrimidin-4(3H)-one]	39	22	–	–	–
CNC(=O)c1ccc(-n2c(N3CCOCC(C)C3)nc3c(c2=O)C[C@@H](C)N(C(=O)c2ccc(Cl)c(Cl)c2)C3)cc1 (stereo partly drawn) [Compound C518]	–	–	> 50	0.47	–
CC(C)Nc1nc2c(c(=O)n1-c1ccc(-c3n[nH]c(Br)n3)cc1)C[C@@H](C)N(C(=O)c1ccc(Cl)c(Cl)c1)C2 [Compound C249, (6R)-3-[4-(5-bromo-1H-1,2,4-triazol-3-yl)phenyl]-7-(3,4-dichlorobenzoyl)-6-methyl-2-[(propan-2-yl)amino]-5,6,7,8-tetrahydropyrido[3,4-d]pyrimidin-4(3H)-one]	> 50	0.49	–	–	–
CNC(=O)c1ccc(-n2c(N(C)Cc3ccc4cnccc4c3)nc3c(c2=O)C[C@@H](C)N(C(=O)c2ccc(Cl)c(Cl)c2)C3)cc1 [Compound C544]	–	–	26.7	0.6	–
COc1ccccc1-n1c(NCC(C)C)nc2c(c1=O)CCN(C(=O)c1ccc(Cl)c(Cl)c1)C2 [Compound C22, 7-(3,4-dichlorobenzoyl)-3-(2-methoxyphenyl)-2-[(2-methylpropyl)amino]-5,6,7,8-tetrahydropyrido[3,4-d]pyrimidin-4(3H)-one]	–	21.7	–	–	CC50 at 4 days (in vitro; 4-days incubation (values marked with *), ATPlite): 26.2 µM
CC(C)Nc1nc2c(c(=O)n1-c1ccc(Cl)nc1)C[C@@H](C)N(C(=O)c1ccc(Cl)c(Cl)c1)C2 [Compound C228, (6R)-3-(6-chloropyridin-3-yl)-7-(3,4-dichlorobenzoyl)-6-methyl-2-[(propan-2-yl)amino]-5,6,7,8-tetrahydropyrido[3,4-d]pyrimidin-4(3H)-one]	> 50	0.27	–	–	–
C#C[C@@H]1CCCN1c1nc2c(c(=O)n1-c1ccc(C(=O)NC)cc1)C[C@@H](C)N(C(=O)c1ccc(Cl)c(Cl)c1)C2 (single isomer, unassigned) [Compound C351, 4-[(6R)-7-(3,4-dichlorobenzoyl)-2-[(2*S)-2-ethynylpyrrolidin-1-yl]-6-methyl-4-oxo-5,6,7,8-tetrahydropyrido[3,4-d]pyrimidin-3(4H)-yl]-N-methylbenzamide]	> 50	0.2	–	–	–
CC[C@@H](C)Nc1nc2c(c(=O)n1-c1ccc(C(=O)NC)cc1)C[C@@H](C)N(C(=O)c1ccc(Cl)c(Cl)c1)C2 [Compound C258, 4-[(6R)-2-{[(2R)-butan-2-yl]amino}-7-(3,4-dichlorobenzoyl)-6-methyl-4-oxo-5,6,7,8-tetrahydropyrido[3,4-d]pyrimidin-3(4H)-yl]-N-methylbenzamide]	> 50	0.05	–	–	–
CNC(=O)c1ccc(-n2c(NC(C)(C)C3CC3)nc3c(c2=O)C[C@@H](C)N(C(=O)c2ccc(Cl)c(Cl)c2)C3)cc1 [Compound C396]	–	–	39.5	0.08	–
